Experiment: Compatibility test of the active ingredient with pharmaceutical additives (storage, HPLC)
Format: physicochemical
Details: 60° C., relative humidity 75%, one week
Procedure: Specifically, 4-amino-5-chloro-N-[(1R,3r,5S)-8-methyl-8-azabicyclo[3.2.1]oct-3-yl]-2-[(1S)-1-methylbut-2-ynyloxy]benzamide was admixed with various pharmaceutical additives in weight proportions in Table 2, the resulting compositions were weighed in transparent glass bottles, and were stored at 60° C., relative humidity of 75% for one week while keeping the lid open. Various fillers, disintegrators, binders, lubricants, and others were used as the pharmaceutical additives. As a control, 4-amino-5-chloro-N-[(1R,3r,5S)-8-methyl-8-azabicyclo[3.2.1]oct-3-yl]-2-[(1S)-1-methylbut-2-ynyloxy]benzamide alone was weighed in a transparent glass bottle and was stored under the above-mentioned conditions. The samples before and after storage were evaluated using high-performance liquid chromatography (HPLC). The stabilities of the samples were evaluated based on the total amount of decomposition products (%), the amount (%) of main decomposition product at a retention time (RRT) of 1.37, and the residual ratio of content (%) of the active ingredient after storage. […] Total amount of decomposition products (%)=Total sum of the amounts of individual decomposition products Residual ratio of content (%)=[(Content after storage)/(Content before storage)]×100 (HPLC condition)
The respective samples before and after storage were mixed with an extraction medium, stirred for sixty minutes, and centrifuged at 3000 rpm for fifteen minutes. The resulting supernatants were assayed by liquid chromatography to thereby determine the amounts of decomposition products and the content of the active ingredient. • Extraction medium: 30% by volume aqueous solution of acetonitrile • Detector: Ultraviolet absorptiometer • Mobile phase A: Mixture of water/acetonitrile/(sodium perchlorate monohydrate)/(perchloric acid) (900:100:7:1, V/V/W/V) • Mobile phase B: Mixture of acetonitrile/water/(sodium perchlorate monohydrate)/(perchloric acid) (900:100:7:1, V/V/W/V) • Column: Stainless steel tube having an inner diameter of 4.6 mm and a length of 15 cm, charged with 3-μm octadecylsilylated silica gel for liquid chromatography • Column temperature: Constant temperature around 40° C.

Compound: CC#C[C@H](C)Oc1cc(N)c(Cl)cc1C(=O)NC1CC2CCC(C1)N2C (stereo partly drawn) [the active ingredient, 4-amino-5-chloro-N-[(1R,3r,5S)-8-methyl-8-azabicyclo[3.2.1]oct-3-yl]-2-[(1S)-1-methylbut-2-ynyloxy]benzamide]
- Decomposition on storage, in words (compared within additive class or with control): no decomposition product
- Amount of main decomposition product at RRT = 1.37 (%) (active ingredient admixed with additive (additive rate 100, 50 or 15 to the active ingredient), lid open, HPLC external standard method): 0.00%
- Residual ratio of content (%) (active ingredient admixed with additive, lid open, content after/before storage x100): 99.6%
- Total amount of decomposition products (%) (active ingredient admixed with additive, lid open, sum of individual decomposition products): 0.00%

From US20070155780A1, “Stabilized composition containing 4-amino-5-chloro-n-[(1r, 3r, 5s)-8-methyl-8-azabicyclo[3.2.1]oct-3-y1]-2-[1-methylbut-2-ynyloxy]benzamide” (priority 2004, published 2007)
